Assay results as given in US7339026B2, “mda-9 protein” (The Trustees of Columbia University In the City of New York, priority 1996, dated 2008).

Columns and labels:
Type in all cases: cell-based, human
FM516-SV = test: Growth of cell line with IFN-β and MEZ, alone and in combination (Coulter Counter cell numbers); conditions: 96-h growth, IFN-β 2000 U/ml, MEZ 10 ng/ml, IFN-β + MEZ 2000 U/ml + 10 ng/ml
Method: (§1) Cell Lines and Culture Conditions. H0-1 is a melanotic melanoma cell line produced from a metastatic inguinal lymph node lesion from a person and was used between passages 150 and 175 (13,21,22). FM516-SV is a normal human melanocyte culture immortalized by the SV40 T-antigen gene (23). Additional melanoma cell lines established from patients with metastatic melanomas that were evaluated, include LO-1, SH-1, WM239, MeWo, SKMEL-p53 wt (containing a wild-type p53 gene) and SKMEL-p53 mut (containing a mutant p53 gene) (13,21,24). Cultures were grown at 37° C. in a 95% air 5% C02-humidified incubator in Dulbecco's modified Eagle's medium (DMEM) supplemented with 5 or 10% fetal bovine serum (Hyclone, Utah). Cultures were maintained in the logarithmic phase of growth by subculturing (1:5 or 1:10) prior to confluence approximately every 4 to 7 d. For determining steady-state RNA expression, cultures were seeded at 1.5×10^6 cells per 10-cm tissue culture plate, and 24 h later the medium was changed without inducers or with IFN-β (2000 U/ml), MEZ (10 ng/ml) or IFN-β+MEZ (2000 U/ml+10 ng/ml). Total cytoplasmic RNA was isolated at various time points and analyzed for mda-9 and GAPDH expression.

LO-1 = test: as above; conditions: 96-h growth, IFN-β 2000 U/ml, MEZ 10 ng/ml, IFN-β + MEZ 2000 U/ml + 10 ng/ml
Method: as §1

HO-1 = test: as above; conditions: for Cell numbers (average of triplicate plates ± S.D.) / percent of control growth: HO-1, 96-h growth, IFN-β 2000 U/ml, MEZ 10 ng/ml, IFN-β + MEZ 2000 U/ml + 10 ng/ml
Method: as §1

WM239 = test: as above; conditions: 96-h growth, IFN-β 2000 U/ml, MEZ 10 ng/ml, IFN-β + MEZ 2000 U/ml + 10 ng/ml
Method: as §1

SKMEL-p53 wt = test: as above; conditions: 96-h growth, IFN-β 2000 U/ml, MEZ 10 ng/ml, IFN-β + MEZ 2000 U/ml + 10 ng/ml
Method: as §1

SKMEL-p53 mut = test: as above; conditions: 96-h growth, IFN-β 2000 U/ml, MEZ 10 ng/ml, IFN-β + MEZ 2000 U/ml + 10 ng/ml
Method: as §1

MeWo = test: as above; conditions: 96-h growth, IFN-β 2000 U/ml, MEZ 10 ng/ml, IFN-β + MEZ 2000 U/ml + 10 ng/ml
Method: as §1

SH-1 = test: as above; conditions: 96-h growth, IFN-β 2000 U/ml, MEZ 10 ng/ml, IFN-β + MEZ 2000 U/ml + 10 ng/ml
Method: as §1

[1] = tested on: mda-9 expression in H0-1 cells; test: mda-9 RNA expression by Northern blotting, equalized to GAPDH; conditions: H0-1 cells grown for 4 days in 10 ng/ml of MEZ
Method: FIG. 1. Temporal expression of mda-9 in H0-1 cells exposed to IFN-β+MEZ. RNAs were isolated from untreated and H0-1 cells treated with IFN-β+MEZ (2000 U/ml+10 ng/ml) for 0.25, 0.5, 1, 2, 4, 8, 12 and 24 h. Ten micrograms of total cellular RNA were separated on 1% agarose gel, transferred to nylon membranes, sequentially hybridized with an mda-9 and then a GAPDH probe, and then exposed to autoradiography.
FIG. 4. Effect of interferons on mda-9 expression in H0-1 cells. H0-1 cells were grown for 96 h in the absence or presence of IFN-α (100 and 1000 U/ml), IFN-β (100 and 1000 U/ml) or IFN-γ (100 U/ml) and RNA was analyzed as described in FIG. 1.
FIGS. 9A-9B. Temporal and dose kinetics of IFN-γ enhancement in mda-9 expression in H0-1 human melanoma cells. H0-1 cells were treated for the indicated time (FIG. 9A) and dose (FIG. 9B) of IFN-γ, RNA was then isolated and analyzed by Northern blotting. […] Replicate samples varied by ≦15%.
as §1
RNA Isolation, Northern Blotting and Southern Blotting of Genomic DNAs. Total cellular RNA was isolated by the guanidinium/phenol procedure and Northern blotting was performed as described (30-32). Ten μg of RNA were denatured with glyoxal/dimethyl sulfoxide (DMSO), electrophoresed on 1.0% agarose gels, transferred to nylon membranes and hybridized to a ^32P-labeled mda-9 probe and then after stripping the membranes were hybridized to a ^32P-labeled rat GAPDH probe (33) as described previously (30-32). […] RNA blots were quantitated by densitometric analysis using a Molecular Dynamics densitometer (Sunnyvale, Calif.) (34). […]

H0-1 cells = test: Effect of interferons on growth of H0-1 cells (FIG. 3); conditions: 4 d treatment with 100 U/ml interferon
Method: FIG. 3. […] Results are the average cell number ±S.D. from the mean.
Experiments were performed to determine if a relationship exists between growth suppression and reduced mda-9 expression. To test this connection, the effect of interferon and MEZ treatment on proliferation and mda-9 expression in human melanoma cells was determined.

Molecule | Cell numbers (average of triplicate plates ± S.D.) (FM516-SV) | percent of control growth (FM516-SV) | Cell numbers (average of triplicate plates ± S.D.) (LO-1) | percent of control growth (LO-1) | growth reduction (HO-1; H0-1 cells grown for 4 days in 10 ng/ml of MEZ) [%] | Cell numbers (average of triplicate plates ± S.D.) (HO-1) | percent of control growth (HO-1) | Cell numbers (average of triplicate plates ± S.D.) (WM239) | percent of control growth (WM239) | Cell numbers (average of triplicate plates ± S.D.) (SKMEL-p53 wt) | percent of control growth (SKMEL-p53 wt) | Cell numbers (average of triplicate plates ± S.D.) (SKMEL-p53 mut) | percent of control growth (SKMEL-p53 mut) | Cell numbers (average of triplicate plates ± S.D.) (MeWo) | percent of control growth (MeWo) | Cell numbers (average of triplicate plates ± S.D.) (SH-1) | percent of control growth (SH-1) | mda-9 expression [1] | reduction of H0-1 growth (H0-1 cells) [%]
C=C(C)[C@@]12O[C@@]3(c4ccccc4)O[C@@H]1[C@@H]1[C@@H]4O[C@]4(CO)[C@@H](O)[C@]4(O)C(=O)C(C)=C[C@H]4[C@@]1(O3)[C@H](C)[C@H]2OC(=O)/C=C/C=C/c1ccccc1 [MEZ, mezerein, reference compound] | 12.7 ± 1.8 | 60% | 4.7 ± 0.4 | 28% | ~74 | 16.8 ± 1.0 | 26% | 19.7 ± 1.2 | 40% | 3.6 ± 0.7 | 21% | 21.5 ± 4.3 | 60% | 15.4 ± 1.9 | 46% | 14.1 ± 0.3 | 57% | unaffected | –
IFN-β: Recombinant human IFN-β, with a serine substituted for a cysteine at position 17 of the molecule (protein, UniProt P01574 22-187, looked up, variant C17S) Interferon beta: MSYNLLGFLQRSSNFQSQKLLWQLNGRLEYCLKDRMNFDIPEEIKQLQQFQKEDAALTIYEMLQNIFAIFRQDSSSTGWNETIVENLLANVYHQINHLKTVLEEKLEKEDFTRGKLMSSLHLKRYYGRILHYLKAKEYSHCAWTIVRVEILRNFYFINRLTGYLRN | 7.8 ± 1.0 | (37) % | 1.3 ± 0.3 | (8) % | – | 14.0 ± 2.6 | (22) % | 9.5 ± 0.9 | (19) % | 9.1 ± 0.3 | (54) % | 39.5 ± 7.5 | (109) % | 15.6 ± 1.9 | (46) % | 14.3 ± 1.5 | (57) % | – | ~70
